In the assay the test system is CEM cells HIV-1 protection, formazan growth assay. In words: NCI AIDS Antiviral Assay. The settings on record: for IC50: measured here: growth of uninfected CEM cells. The method, boiled down:
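Protection of CEM cells against HIV-1 measured as cell growth via soluble formazan read-out, with five concentrations tested on both infected and uninfected cells; failure to protect may reflect toxicity.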

Activity calls are given as the source filed them.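 The calls were made as follows: active = compounds giving half or more protection of infected cells from virus-caused growth loss, again on retest; inactive = the rest.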 Where a SMILES comes first, the peptide text is derived from it. Bridges are numbered along the chain shown (N, C = ends). [ ]: non-standard residue; d: D form. Orn = NCCC[CH](N)C(=O)O

`CCOc1ccc(NC(=O)/C(=C\c2ccc(C)cc2)C(C)=O)cc1`: the outcome was inactive. Take `COc1cc(C[C@H]2C(=O)OC[C@@H]2C(=O)c2ccc(OC(C)C)c(O)c2)cc(OC)c1O`: the EC50 (commonly the concentration needed to bring the measured effect to its halfway point) is above 2 µM and the IC50 (commonly the concentration needed to halve the response being measured) stood at 0.49 µM. For `NNC1=N/C(=C\c2ccco2)C(=O)N1` the same measures were above 200 µM and 162 µM. Take `C[N+]12CN3CN(C1)S(=O)(=O)N(C3)C2`: the result was inactive. On to `O=C1/C(=C\c2cccc(Oc3ccccc3)c2)SC(c2ccccc2)N1c1ccccc1` (stereo unspecified), for which the EC50 was above 20 µM and the IC50 was determined as 0.0933 µM. Take `CN(C)CC1CCCC1=O` (stereo unspecified): the EC50 is above 200 µM, the outcome was inactive and the IC50 was determined as 28.2 µM. As to `CCCCP(CCCC)(CCCC)=C(C(=O)OC)C(C(=O)OC)=C1SC(C(=O)OC)=C(C(=O)OC)S1`, the EC50 is above 200 µM and the 50% inhibitory concentration (IC50) stood at 33.1 µM.

Turning to `COc1ccc(OC)c(/C=C2\C=Cc3ccccc32)c1`, the EC50 is above 38 µM and the IC50 was 6.46 µM. With `CC1=NN(c2nc(N)nc(CSc3cc(Cl)c(C)cc3S(N)(=O)=O)n2)C(C)(C)C1`, the outcome was inactive.

For `COc1ccc(C2N(c3ccc(F)cc3)C(=O)N3C(c4ccc(OC)cc4)N(c4ccc(F)cc4)C(=O)N23)cc1` (stereo unspecified), the EC50 was above 200 µM and the IC50 is above 200 µM. With `c1ncn(C23C4C5C6C4C2C6C53)n1` (stereo unspecified), the EC50 was above 200 µM and the concentration for half-maximal inhibition (IC50) was above 200 µM. Turning to `CN(C)NC(=S)C(F)(F)C(F)(F)F`, the EC50 was above 200 µM and the IC50 stood at 10.2 µM. `C/C(N=NC(=S)N1CC2CCC(CC2)C1)=C1\C=CC=CN1O`: the EC50 was above 158 µM and the IC50 was found to be 1.86 µM. Regarding `COc1ccc(-c2cc(C)n(C3OC(CO)C(O)C(O)C3O)c(=S)c2C#N)cc1` (stereo unspecified), the EC50 is above 200 µM and the IC50 was 126 µM. Turning to `CC(C)(C)C1CCC(C[Se]c2ccc(Cl)cc2)([N+](=O)[O-])CC1` (stereo unspecified), the result was inactive. On to `NCC1OC(OC2C(CO)OC(OC3C(O)C(N)CC(N)C3OC3OC(CN)C(O)C(O)C3N)C2O)C(N)C(O)C1O` (stereo unspecified) (tested in a mixture with another compound), for which the EC50 was above 135 µM and the IC50 is 9.33 µM. On to `CC1(Nc2ccccc2)OC(=O)c2ccccc21` (stereo unspecified), for which the EC50 was above 200 µM and the IC50 was above 200 µM. Take `FC(F)(F)P1C2C=CC(CC2)C1(F)F` (stereo unspecified): the EC50 is above 251 µM and the half-inhibitory concentration (IC50) was above 251 µM. For `CNC(=O)N(CCCCC(NC(C)=O)C(=O)NCc1ccccc1)Cc1ccccc1` (stereo unspecified), the EC50 was above 589 µM and the IC50 was above 589 µM. Turning to `C[C@]12CC[C@@H]3c4ccc(OC(=O)c5ccccc5)cc4CC[C@H]3[C@@H]1CCC2OC(=O)c1cccc2c(=O)c3ccccc3[nH]c12` (stereo partly specified), the EC50 was above 151 µM and the concentration for half-maximal inhibition (IC50) worked out at 7.94 µM. Consider `NC1=NN(c2ccccc2)C(=O)C1C(=O)CCC(=O)Nc1cccc(C(F)(F)F)c1` (stereo unspecified), for which the EC50 was above 427 µM and the IC50 was 407 µM.

As for `COC(=O)C(Cc1c[nH]c2ccccc12)NP(=O)(O)OCC1OC(n2ccc(N)nc2=O)C(O)C1O` (stereo unspecified), the EC50 was above 200 µM and the IC50 was 5.25 µM. Taken in the same sequence, the figures for `C[N+](C)(C)c1cc2c(nn1)Nc1ccccc1S2` were above 200 µM and 10 µM. For `NC(=S)N/N=C1\CCCC1C(O)(C(F)(F)Cl)C(F)(F)Cl` (stereo unspecified) the same measures were above 200 µM and 38.9 µM. Regarding `CC1=C(O)C(=O)C2C(=O)C1C(C)C2c1ccc(C)cc1` (stereo unspecified), the EC50 is above 251 µM and the half-maximal inhibitory concentration (IC50) is above 251 µM. For the compound `Fc1nc(F)nc(-c2c3ccccc3c3n2CCS3)n1`, the EC50 is above 25.1 µM and the IC50 is above 25.1 µM. Consider `Clc1ccc(CN2COc3c(cc(Cl)c4cccnc34)C2)cc1`, for which the EC50 was above 64.6 µM and the concentration for half-maximal inhibition (IC50) stood at 1.26 µM. Turning to `C=CCOc1ccc(Sc2c(O)cc(-c3ccccc3)oc2=O)c(C(C)(C)C)c1`, the EC50 is above 200 µM and the concentration for half-maximal inhibition (IC50) worked out at 31.6 µM. For `O=[N+]([O-])/C=C/c1c(Cl)cccc1Cl`, the result was inactive.

As for `CCOC(=O)C(C(=S)SC)c1nn2c(=O)cc(C)nc2s1` (stereo unspecified), the EC50 was above 200 µM and the IC50 is 19.1 µM.

`Cc1cc(C2=CSC3=NCCN23)ccc1Cl`: the EC50 was above 200 µM and the IC50 came out at 151 µM. Regarding `O=C1CN=C(c2ccccc2)c2cc(Cl)ccc2N1`, the EC50 was above 26.3 µM and the IC50 was above 26.3 µM.

Turning to `CCOC(=O)C1(C(=O)OCC)Cc2c([nH]c3ccccc23)CN1C(=O)c1ccccc1`, the EC50 was above 22.4 µM and the IC50 was above 22.4 µM. Take `Cc1ccc(S(=O)(=O)NCCN(CCNS(=O)(=O)c2ccc(C)cc2)S(=O)(=O)c2ccc(C)cc2)cc1`: the EC50 was above 200 µM and the IC50 is above 200 µM. Consider `CCCCc1c2c(nc3c1CCCC3=O)CCCC2`, for which the EC50 was above 195 µM and the half-inhibitory concentration (IC50) amounted to 28.8 µM.

As for `CN1C[C@H]2[C@@H](C1=O)[C@H](c1ccc([N+](=O)[O-])cc1)ON2C`, the EC50 was above 200 µM and the half-maximal inhibitory concentration (IC50) is above 200 µM. For `Nc1[nH]c(=O)nc(Nc2ccc(Cl)c(Cl)c2)c1N=O`, the EC50 is above 200 µM and the IC50 was determined as 13.5 µM. For `NC(=O)c1ccc(S(=O)(=NS(=O)(=O)c2ccccc2)c2ccc(C(N)=O)cc2)cc1` the same measures were above 295 µM and above 295 µM. Taken in the same sequence, the figures for `O=C(c1cc2ccccc2o1)N(Cc1ccccc1)c1ccccc1` were above 79.4 µM and above 79.4 µM. Taken in the same sequence, the figures for `Clc1ccc(C(OCn2ccnc2)c2nc3ccccc3[nH]2)c(Cl)c1` (stereo unspecified) were above 200 µM and 107 µM. For the compound `O=[n+]1c2c(n([O-])c3ccccc31)-c1cccc3cccc-2c13`, the EC50 was above 200 µM and the IC50 was 129 µM. Taken in the same sequence, the figures for `Oc1cccnc1/C=N/OCc1ccccc1` were above 295 µM and 219 µM. Taken in the same sequence, the figures for `OC(NN=C1CCCC1)(C(F)(F)Cl)C(F)(F)Cl` were above 200 µM and 170 µM. Taken in the same sequence, the figures for `COc1ccc(OC)c(-c2csc(=O)s2)c1` were above 269 µM and above 269 µM.

Turning to `CC1=NN(C(=O)c2ccccc2O)C(=O)/C1=C/c1ccc(O)cc1`, the EC50 was above 30.9 µM and the IC50 came to 0.0589 µM. `Nc1cc(OCc2ccccc2)c(OCc2ccccc2)cc1C=O`: the EC50 is above 200 µM and the 50% inhibitory concentration (IC50) is 18.6 µM. For `O=[N+]([O-])c1ccc(N=Cc2ccc(O)cc2)cc1` the same measures were above 200 µM and 10 µM.

Consider `Cc1c2ccccc2nc(CSc2ccc(Cl)cc2)[n+]1[O-]`, for which the EC50 was 45.7 µM and the IC50 is 105 µM.

Take `CC(=O)C1(c2ccccc2)CCNCC1`: the outcome was inactive. On to `[N-]=[N+]=CC(=O)c1ccccc1C#CCCc1ccccc1`, for which the EC50 was 46.8 µM and the IC50 was 67.6 µM. For `NC1=NS(=O)(=O)Nc2nc(-c3ccc([N+](=O)[O-])cc3)[nH]c21` the same measures were above 200 µM and above 200 µM.

Consider `Cc1ccc(C2=NOC(=O)[C@@H]3CCCC[C@@H]23)cc1`, for which the EC50 is above 200 µM and the half-inhibitory concentration (IC50) was found to be 97.7 µM.

For `Cc1[nH]n(C(=O)c2ccccc2O)c(=O)c1/C=C1\C(=O)C=Cc2ccccc21`, the EC50 is above 19.5 µM and the half-inhibitory concentration (IC50) is 0.398 µM. Take `CCCCCCCCCCCCCCCCc1c(C(=O)OC)nc(NN)[nH]c1=O`: the EC50 was above 9.33 µM and the half-maximal inhibitory concentration (IC50) is above 9.33 µM. For the compound `COc1ccc2c(=O)c([Se]c3coc4cc(OC)ccc4c3=O)coc2c1`, the EC50 is above 60.3 µM and the IC50 was above 60.3 µM. `CS(=O)CC(=O)c1ccccn1` (stereo unspecified): the EC50 is above 200 µM and the concentration for half-maximal inhibition (IC50) is above 200 µM. Regarding `Cc1ccc(OCC(=O)N2N=C(c3ccccc3)CC2(O)c2ccccc2)cc1` (stereo unspecified), the EC50 is above 25.7 µM and the IC50 is above 25.7 µM. `Cc1ccc(S(=O)(=O)N2CCNCCN(S(=O)(=O)c3ccc(C)cc3)CCNCC2)cc1`: the EC50 is above 126 µM and the IC50 is 51.3 µM. Taken in the same sequence, the figures for `CC(C)c1cccc(C(C)C)c1NC(=O)C(=O)Cc1nc2ccc([N+](=O)[O-])cc2[nH]c1=O` were above 490 µM and 89.1 µM. In the case of `Oc1ccccc1C=Nc1ccccc1S.[Cu+2]`, the EC50 was above 151 µM and the 50% inhibitory concentration (IC50) came to 2.57 µM. `O=S(=O)(C/C(=N\O)c1ccccc1)c1ccccc1`: the EC50 was above 324 µM and the half-maximal inhibitory concentration (IC50) amounted to 182 µM.

Take `Clc1nncc2sc(-c3ccccc3)nc12`: the EC50 is above 151 µM and the IC50 came to 8.32 µM. For `CN(CC(=O)O)S(=O)(=O)c1ccc2ccccc2c1`, the outcome was inactive. Turning to `NC(=O)C1CCCNC(=O)CC(NC(=O)C(N)Cc2ccc(O)cc2)C(=O)NC(Cc2ccccc2)C(=O)N1` (stereo unspecified) (H-YDF[Orn]-NH2; lactam 2-4; configuration not given here), the EC50 was above 100 µM and the 50% inhibitory concentration (IC50) was above 100 µM.

Turning to `O=CC12CCCN1CCC2`, the EC50 was above 200 µM and the IC50 is above 200 µM. With `CCCCCCCCOCC(CO)OCCCCCCCC` (stereo unspecified), the EC50 was above 251 µM and the IC50 came to 132 µM. Take `COc1ccc2c(c1)c1c3c(ccc4ncn2c43)N(CCO)CCN=1`: the EC50 is above 100 µM and the IC50 stood at 0.178 µM.

Turning to `COc1ccc(C)[n+]([O-])n1`, the EC50 is above 200 µM and the IC50 is above 200 µM. With `O=C1c2ccccc2C(=O)c2sc(Nc3cc(Cl)ccc3Cl)nc21`, the EC50 is above 200 µM and the 50% inhibitory concentration (IC50) turned out to be 10.5 µM.

Turning to `NC(Cc1c[nH]c2ccccc12)P(=O)(O)O` (stereo unspecified), the EC50 is above 200 µM and the half-inhibitory concentration (IC50) is above 200 µM.

With `CC(=O)/C(=C/n1ccc(=O)[nH]c1=S)C(=O)Nc1ccccc1`, the EC50 is above 200 µM and the IC50 was above 200 µM. For `Cn1c(=N)c(C#N)c2n(c1=S)CCCCCCC2`, the EC50 is above 200 µM and the IC50 worked out at 97.7 µM.

As for `CCOC(=O)c1c(-c2ccccc2)oc(-c2ccccc2)c1C(=O)OCC`, the result was inactive.

Regarding `CC(C)(C)N=P(c1ccccc1)(c1ccccc1)c1ccccc1`, the EC50 was above 200 µM and the IC50 was 191 µM.
